# In patent publication US12201640B2, “19-nor C3,3-disubstituted C21-n-pyrazolyl steroids and methods of use thereof” (Sage Therapeutics, Inc., priority 2013, dated 2025):
# Key:
# [1] = target: T1, GABAA-R (Homo sapiens, UniProt P14867+P47870); experiment: Electrophysiological evaluation at GABAA-R (Table 2); format: cell-based; settings: GABAA-R electrophysiology; for EC50: read-out: EC50
# T1 sequence (P14867 1-456): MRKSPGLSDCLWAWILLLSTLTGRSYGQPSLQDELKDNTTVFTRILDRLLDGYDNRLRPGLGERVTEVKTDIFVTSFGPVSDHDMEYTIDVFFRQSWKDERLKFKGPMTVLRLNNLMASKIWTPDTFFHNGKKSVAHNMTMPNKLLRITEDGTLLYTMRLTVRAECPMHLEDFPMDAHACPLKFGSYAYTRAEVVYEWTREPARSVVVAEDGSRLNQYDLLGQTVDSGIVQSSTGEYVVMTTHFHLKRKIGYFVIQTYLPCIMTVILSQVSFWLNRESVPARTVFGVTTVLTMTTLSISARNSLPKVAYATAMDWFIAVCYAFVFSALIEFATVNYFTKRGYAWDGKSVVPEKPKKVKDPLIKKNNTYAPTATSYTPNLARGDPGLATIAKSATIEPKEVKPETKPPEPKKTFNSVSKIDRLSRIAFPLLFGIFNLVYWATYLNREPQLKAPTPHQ
# T1 sequence (P47870 1-512): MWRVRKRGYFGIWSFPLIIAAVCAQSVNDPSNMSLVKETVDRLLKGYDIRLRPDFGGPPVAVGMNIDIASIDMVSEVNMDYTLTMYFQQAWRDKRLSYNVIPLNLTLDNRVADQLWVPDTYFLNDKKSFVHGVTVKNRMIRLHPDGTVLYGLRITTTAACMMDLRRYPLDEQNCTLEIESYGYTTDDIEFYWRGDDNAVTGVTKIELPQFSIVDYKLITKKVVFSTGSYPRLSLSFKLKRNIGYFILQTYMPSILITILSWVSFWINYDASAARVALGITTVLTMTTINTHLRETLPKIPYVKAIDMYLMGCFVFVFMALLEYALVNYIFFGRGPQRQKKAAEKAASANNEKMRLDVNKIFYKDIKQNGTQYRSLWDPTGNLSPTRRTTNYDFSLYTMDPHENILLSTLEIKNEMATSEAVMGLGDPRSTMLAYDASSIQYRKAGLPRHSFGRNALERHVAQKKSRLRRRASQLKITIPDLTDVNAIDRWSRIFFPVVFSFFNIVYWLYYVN
# Procedure: (§1) Patch Clamp Electrophysiology of Recombinant α1β2γ2 and α4β3δ GABAA Receptors
# (§2) Cellular electrophysiology is used to measure the pharmacological properties of our GABAA receptor modulators in heterologous cell systems. Each compound is tested for its ability to affect GABA mediated currents at a submaximal agonist dose (GABA EC20=2 μM). LTK cells are stably transfected with the α1β2γ2 subunits of the GABA receptor and CHO cells are transiently transfected with the α4β3δ subunits via the Lipofecatamine method. Cells were passaged at a confluence of about 50-80% and then seeded onto 35 mm sterile culture dishes containing 2 ml culture complete medium without antibiotics or antimycotics. Confluent clusters of cells are electrically coupled (Pritchett et al., Science, 1988, 242, 1306-1308.). Because responses in distant cells are not adequately voltage clamped and because of uncertainties about the extent of coupling (Verdoorn et al., Neuron 1990, 4, 919-928.), cells were cultivated at a density that enables the recording of single cells (without visible connections to other cells).
# (§3) Whole cell currents were measured with HEKA EPC-10 amplifiers using PatchMaster software or by using the high throughput QPatch platform (Sophion). Bath solution for all experiments contained (in mM): NaCl 137 mM, KCl 4 mM, CaCl2 1.8 mM, MgCl2 1 mM, HEPES 10 mM, D-Glucose 10 mM, pH (NaOH) 7.4. In some cases 0.005% cremophor was also added. Intracellular (pipette) solution contained: KCl 130 mM, MgCl2 1 mM, Mg-ATP 5 mM, HEPES 10 mM, EGTA 5 mM, pH 7.2. During experiments, cells and solutions were maintained at room temperature (19° C.-30° C.). For manual patch clamp recordings, cell culture dishes were placed on the dish holder of the microscope and continuously perfused (1 ml/min) with bath solution. After formation of a Gigaohm seal between the patch electrodes and the cell (pipette resistance range: 2.5 MΩ-6.0 MΩ; seal resistance range: >1 GΩ) the cell membrane across the pipette tip was ruptured to assure electrical access to the cell interior (whole-cell patch-configuration). For experiments using the QPatch system, cells were transferred as suspension to the QPatch system in the bath solution and automated whole cell recordings were performed.
# (§4) Cells were voltage clamped at a holding potential of −80 mV. For the analysis of test articles, GABA receptors were stimulated by 2 μM GABA after sequential pre-incubation of increasing concentrations of the test article. Pre-incubation duration was 30 s and the duration of the GABA stimulus was 2 s. Test articles were dissolved in DMSO to form stock solutions (10 mM). Test articles were diluted to 0.01, 0.1, 1, and 10 μM in bath solution. All concentrations of test articles were tested on each cell. The relative percentage potentiation was defined as the peak amplitude in response to GABA EC20 in the presence of the test article divided by the peak amplitude in response to GABA EC20 alone, multiplied by 100.
# [2] = target: [35S]-TBPS binding, rat brain cortical membranes (GABA receptor complex); experiment: Steroid inhibition of [35S]-TBPS binding; settings: 3 nM [35S]-TBPS, 5 μM GABA
# Procedure: Steroid Inhibition of TBPS Binding
# [35S]-t-Butylbicyclophosphorothionate (TBPS) binding assays using rat brain cortical membranes in the presence of 5 μM GABA has been described (Gee et al, J. Pharmacol. Exp. Ther. 1987, 241, 346-353; Hawkinson et al, Mol. Pharmacol. 1994, 46, 977-985; Lewin, A. H et al., Mol. Pharmacol. 1989, 35, 189-194).
# Briefly, cortices are rapidly removed following decapitation of carbon dioxide-anesthetized Sprague-Dawley rats (200-250 g). The cortices are homogenized in 10 volumes of ice-cold 0.32 M sucrose using a glass/teflon homogenizer and centrifuged at 1500×g for 10 min at 4° C. The resultant supernatants are centrifuged at 10,000×g for 20 min at 4° C. to obtain the P2 pellets. The P2 pellets are resuspended in 200 mM NaCl/50 mM Na-K phosphate pH 7.4 buffer and centrifuged at 10,000×g for 10 min at 4° C. This washing procedure is repeated twice and the pellets are resuspended in 10 volumes of buffer. Aliquots (100 μL) of the membrane suspensions are incubated with 3 nM [^35S]-TBPS and 5 μL aliquots of test drug dissolved in dimethyl sulfoxide (DMSO) (final 0.5%) in the presence of 5 μM GABA. The incubation is brought to a final volume of 1.0 mL with buffer. Nonspecific binding is determined in the presence of 2 μM unlabeled TBPS and ranged from 15 to 25%. Following a 90 min incubation at room temp, the assays are terminated by filtration through glass fiber filters (Schleicher and Schuell No. 32) using a cell harvester (Brandel) and rinsed three times with ice-cold buffer. Filter bound radioactivity is measured by liquid scintillation spectrometry. Non-linear curve fitting of the overall data for each drug averaged for each concentration is done using Prism (GraphPad). […] The concentration of test compound producing 50% inhibition (IC50) of specific binding and the maximal extent of inhibition (Imax) are determined for the individual experiments with the same model used for the overall data and then the means±SEM.s of the individual experiments are calculated.
# Various compounds are or can be screened to determine their potential as modulators of [^35S]-TBPS binding in vitro. These assays are or can be performed in accordance with the above discussed procedures.
# [3] = target: T2, GABAA receptor α1β2γ2 (Homo sapiens, UniProt P14867+P47870); experiment: Patch clamp electrophysiology, Qpatch in Ltk cells; format: cell-based; settings: 10 μM test article, GABA EC20 2 μM, read-out: GABA (α1β2γ2) Qpatch in Ltk, % efficacy at 10 μM
# T2 construct: expressed in transfected cells
# Procedure: as §1, §2, §3, §4
# [4] = target: T3, GABAA receptor α4β3δ (Homo sapiens, UniProt P28472+P48169); experiment: Patch clamp electrophysiology, manual patch in CHO cells; format: cell-based; settings: 10 μM test article, GABA EC20 2 μM, read-out: GABA (α4β3δ) Manual patch in CHO, % efficacy at 10 μM
# T3 construct: expressed in transfected cells; host or cells: CHO cells (transient, lipofection)
# Procedure: as §1, §2, §3, §4
# T3 sequence (P48169 36-554): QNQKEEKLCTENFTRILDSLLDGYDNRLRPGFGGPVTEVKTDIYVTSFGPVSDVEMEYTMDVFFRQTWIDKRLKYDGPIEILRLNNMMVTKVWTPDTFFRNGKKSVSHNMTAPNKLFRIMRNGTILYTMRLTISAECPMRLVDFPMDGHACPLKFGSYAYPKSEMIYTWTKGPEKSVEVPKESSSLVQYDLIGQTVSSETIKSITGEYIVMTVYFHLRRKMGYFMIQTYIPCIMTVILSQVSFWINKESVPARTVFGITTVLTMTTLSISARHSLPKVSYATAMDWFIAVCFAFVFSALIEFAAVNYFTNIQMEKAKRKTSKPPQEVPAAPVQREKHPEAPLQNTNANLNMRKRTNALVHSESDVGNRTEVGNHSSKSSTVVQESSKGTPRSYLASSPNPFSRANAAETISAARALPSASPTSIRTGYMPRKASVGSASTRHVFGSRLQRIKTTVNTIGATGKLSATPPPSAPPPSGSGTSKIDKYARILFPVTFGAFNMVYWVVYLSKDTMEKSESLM
# T3 sequence (P28472 26-473): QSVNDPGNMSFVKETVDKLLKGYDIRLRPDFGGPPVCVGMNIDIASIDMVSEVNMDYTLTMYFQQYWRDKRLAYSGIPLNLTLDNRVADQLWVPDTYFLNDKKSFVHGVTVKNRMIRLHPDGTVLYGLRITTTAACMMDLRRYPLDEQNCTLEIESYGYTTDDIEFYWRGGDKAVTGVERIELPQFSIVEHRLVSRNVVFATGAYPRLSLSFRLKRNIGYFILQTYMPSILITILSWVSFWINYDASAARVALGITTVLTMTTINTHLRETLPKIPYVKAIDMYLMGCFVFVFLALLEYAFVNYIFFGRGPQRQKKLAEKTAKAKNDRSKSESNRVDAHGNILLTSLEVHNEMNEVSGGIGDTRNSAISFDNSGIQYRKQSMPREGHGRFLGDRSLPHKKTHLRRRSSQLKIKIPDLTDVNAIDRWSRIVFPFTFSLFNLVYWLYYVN
# T3 sequence (O14764 25-452 partner): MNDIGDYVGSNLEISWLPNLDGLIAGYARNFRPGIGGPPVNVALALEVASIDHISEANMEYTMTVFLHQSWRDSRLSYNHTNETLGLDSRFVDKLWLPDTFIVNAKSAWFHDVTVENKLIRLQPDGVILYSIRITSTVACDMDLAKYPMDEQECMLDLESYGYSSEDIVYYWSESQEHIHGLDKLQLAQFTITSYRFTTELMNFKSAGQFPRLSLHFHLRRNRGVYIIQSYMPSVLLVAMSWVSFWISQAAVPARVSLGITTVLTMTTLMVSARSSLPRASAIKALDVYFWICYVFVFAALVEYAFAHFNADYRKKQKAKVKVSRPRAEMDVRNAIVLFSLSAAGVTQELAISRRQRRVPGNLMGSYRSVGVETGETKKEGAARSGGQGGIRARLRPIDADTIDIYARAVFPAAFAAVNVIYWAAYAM
# T2 sequence (P18507 40-475 partner, one chain of several): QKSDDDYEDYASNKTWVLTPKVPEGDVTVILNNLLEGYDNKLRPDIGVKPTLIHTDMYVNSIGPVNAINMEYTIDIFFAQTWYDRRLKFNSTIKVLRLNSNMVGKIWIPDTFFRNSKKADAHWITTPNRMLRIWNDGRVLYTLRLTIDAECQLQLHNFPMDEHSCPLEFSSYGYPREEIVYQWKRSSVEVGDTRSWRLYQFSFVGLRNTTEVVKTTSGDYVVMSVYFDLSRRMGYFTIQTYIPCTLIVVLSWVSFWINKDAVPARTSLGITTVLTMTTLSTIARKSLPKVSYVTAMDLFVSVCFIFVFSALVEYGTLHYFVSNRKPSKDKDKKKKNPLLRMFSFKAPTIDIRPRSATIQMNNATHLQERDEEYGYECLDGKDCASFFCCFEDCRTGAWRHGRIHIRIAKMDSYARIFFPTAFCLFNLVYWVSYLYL
SMILES,Emax [1] [%],EC50 [1] [nM],IC50 [2] [nM],Emax at 10 µM [3] [%],Emax at 10 µM [4] [%]
C[C@@]1(O)CC[C@H]2[C@H](CC[C@@H]3[C@@H]2CC[C@]2(C)[C@@H](C(=O)Cn4ccc(C(F)(F)F)n4)CC[C@@H]32)C1 [SA-1],500 to 1000,1000 to 2000,< 10,> 500,–
C[C@@]1(O)CC[C@H]2[C@H](CC[C@@H]3[C@@H]2CC[C@]2(C)[C@@H](C(=O)Cn4nccc4C(F)(F)F)CC[C@@H]32)C1 [SA-2],500 to 1000,> 2000,50 to 100,> 500,–
CC(=O)c1ccn(CC(=O)[C@H]2CC[C@H]3[C@@H]4CC[C@@H]5C[C@](C)(O)CC[C@@H]5[C@H]4CC[C@]23C)n1 [SA-5],–,> 2000,< 10,> 500,–
C[C@@]1(O)CC[C@H]2[C@H](CC[C@@H]3[C@@H]2CC[C@]2(C)[C@@H](C(=O)Cn4cc(Cl)cn4)CC[C@@H]32)C1 [SA-7],0 to 500,1000 to 2000,10 to 50,> 500,> 500
C[C@@]1(O)CC[C@H]2[C@H](CC[C@@H]3[C@@H]2CC[C@]2(C)[C@@H](C(=O)Cn4cc([N+](=O)[O-])cn4)CC[C@@H]32)C1 [SA-8],0 to 500,1000 to 2000,10 to 50,100 to 500,–
C[C@@]1(O)CC[C@H]2[C@H](CC[C@@H]3[C@@H]2CC[C@]2(C)[C@@H](C(=O)Cn4cc(Br)cn4)CC[C@@H]32)C1 [SA-9],0 to 500,100 to 500,10 to 50,100 to 500,> 500
Cc1ccnn1CC(=O)[C@H]1CC[C@H]2[C@@H]3CC[C@@H]4C[C@](C)(O)CC[C@@H]4[C@H]3CC[C@]12C [SA-10],0 to 500,> 2000,50 to 100,100 to 500,–
Cc1ccn(CC(=O)[C@H]2CC[C@H]3[C@@H]4CC[C@@H]5C[C@](C)(O)CC[C@@H]5[C@H]4CC[C@]23C)n1 [SA-11],500 to 1000,1000 to 2000,10 to 50,> 500,–
COC[C@@]1(O)CC[C@H]2[C@H](CC[C@@H]3[C@@H]2CC[C@]2(C)[C@@H](C(=O)Cn4cc(C#N)cn4)CC[C@@H]32)C1 [SA-24],–,–,10 to 50,> 500,> 500
C[C@]12CC[C@H]3[C@@H](CC[C@@H]4C[C@@](O)(CF)CC[C@@H]43)[C@@H]1CC[C@@H]2C(=O)Cn1cc(C#N)cn1 [SA-32],–,–,10 to 50,> 500,> 500
C[C@@]1(O)CC[C@H]2[C@@H](CC[C@@H]3[C@@H]2CC[C@]2(C)[C@@H](C(=O)Cn4cccn4)CC[C@@H]32)C1 [SB-1],–,–,100 to 500,100 to 500,100 to 500
C[C@@]1(O)CC[C@H]2[C@@H](CC[C@@H]3[C@@H]2CC[C@]2(C)[C@@H](C(=O)Cn4cc(C#N)cn4)CC[C@@H]32)C1 [SB-2],–,–,–,100 to 500,100 to 500
COC[C@@]1(O)CC[C@H]2[C@@H](CC[C@@H]3[C@@H]2CC[C@]2(C)[C@@H](C(=O)Cn4cc(C#N)cn4)CC[C@@H]32)C1 [SB-5],–,–,10 to 50,> 500,100 to 500
C[C@@]1(O)CC[C@@H]2[C@H]3CC[C@]4(C)[C@@H](C(=O)Cn5cccn5)CC[C@H]4[C@@H]3C[C@@H](F)[C@H]2C1 [SB-10],–,–,100 to 500,100 to 500,100 to 500
C[C@@]1(O)CC[C@@H]2[C@H]3CC[C@]4(C)[C@@H](C(=O)Cn5cc(C#N)cn5)CC[C@H]4[C@@H]3C[C@@H](F)[C@H]2C1 [SB-11],–,–,–,100 to 500,> 500
C[C@@]1(O)CC[C@@H]2[C@H]3CC[C@]4(C)[C@@H](C(=O)Cn5cc(S(C)(=O)=O)cn5)CC[C@H]4[C@@H]3C[C@@H](F)[C@H]2C1 [SB-15],–,–,–,100 to 500,> 500
